Laboratory results as given in ChEMBL document CHEMBL3885861, “Open TG-GATES”.

Organism: Rattus norvegicus
Assay: Open TG-GATES - Regimen: Daily Repeat
Assay type: toxicity, organism-based, Sprague-Dawley
Set-up: regimen Daily Repeat, gender Male, age 6 weeks
Details: in vivo, po, route gavage; for APTT / Bas / Eos / Fbg / Hb / Ht / Lym / MCH / MCHC / MCV / Mono / Neu / PT / Plat / RBC / Ret / WBC: tissue Blood; for KIDNEY_L / KIDNEY_R / KIDNEY_TOTAL: tissue Kidney; for LIVER: tissue Liver; for A/G / ALP / ALT / AST / BUN / CRE / Ca / Cl / DBIL / GLC / IP / K / LDH / Na / PL / RALB / TBIL / TC / TG / TP / gamma-GTP: tissue Plasma
[1] = 10 mg/kg, 72 h, dose level Middle, time 3 day
[2] = 10 mg/kg, […], dose level Middle, time 7 day
[3] = 10 mg/kg, […], dose level Middle, time 14 day
[4] = 10 mg/kg, […], dose level Middle, time 28 day
[5] = 30 mg/kg, 72 h, dose level High, time 3 day
[6] = 30 mg/kg, […], dose level High, time 7 day
[7] = 30 mg/kg, […], dose level High, time 14 day
[8] = 30 mg/kg, […], dose level High, time 28 day

C=CCO [ALLYL ALCOHOL]
TERMINAL_BW [1]: 233.1 g
APTT [1]: 20.8 s
Bas [1]: 0%
Eos [1]: 0.6%
Fbg [1]: 233.2 mg/dL
Hb [1]: 13.9 g/dL
Ht [1]: 40.8%
Lym [1]: 77.4%
MCH [1]: 20.6 pg
MCHC [1]: 33.9%
MCV [1]: 60.7 fL
Mono [1]: 3.6%
Neu [1]: 17.8%
PT [1]: 11.7 s
Plat [1]: 133.2 x10_4/uL
RBC [1]: 672.8 x10_4/ul
Ret [1]: 5.1%
WBC [1]: 116 x10_2/uL
KIDNEY_L [1]: 1 g
KIDNEY_R [1]: 1 g
KIDNEY_TOTAL [1]: 2.1 g
LIVER [1]: 11.2 g
A/G [1]: 1.6
ALP [1]: 921.4 IU/L
ALT [1]: 35.2 IU/L
AST [1]: 67.6 IU/L
BUN [1]: 14 mg/dL
CRE [1]: 0.4 mg/dL
Ca [1]: 10.7 mg/dL
Cl [1]: 103 meq/L
DBIL [1]: 0.066 mg/dL
GLC [1]: 207.8 mg/dL
IP [1]: 6.6 mg/dL
K [1]: 3.9 meq/L
LDH [1]: 226 IU/L
Na [1]: 140.2 meq/L
PL [1]: 142 mg/dL
RALB [1]: 3.3 g/dL
TBIL [1]: 0.1 mg/dL
TC [1]: 78 mg/dL
TG [1]: 78 mg/dL
TP [1]: 5.3 g/dL
gamma-GTP [1]: 1 IU/L
TERMINAL_BW [2]: 267.6 g
TERMINAL_BW [3]: 329.3 g
TERMINAL_BW [4]: 403.7 g
APTT [2]: 18.2 s
Bas [2]: 0%
Eos [2]: 0.8%
Fbg [2]: 219 mg/dL
Hb [2]: 13.5 g/dL
Ht [2]: 39.7%
Lym [2]: 82.6%
MCH [2]: 20.5 pg
MCHC [2]: 34%
MCV [2]: 60.2 fL
Mono [2]: 2.6%
Neu [2]: 13.4%
PT [2]: 12 s
Plat [2]: 137.3 x10_4/uL
RBC [2]: 661 x10_4/ul
Ret [2]: 4.5%
WBC [2]: 128.8 x10_2/uL
APTT [3]: 19.2 s
Bas [3]: 0%
Eos [3]: 1%
Fbg [3]: 225.8 mg/dL
Hb [3]: 14.3 g/dL
Ht [3]: 41.2%
Lym [3]: 77.8%
MCH [3]: 20.4 pg
MCHC [3]: 34.7%
MCV [3]: 58.8 fL
Mono [3]: 3%
Neu [3]: 17.8%
PT [3]: 11.8 s
Plat [3]: 134 x10_4/uL
RBC [3]: 700.4 x10_4/ul
Ret [3]: 4.5%
WBC [3]: 123.8 x10_2/uL
APTT [4]: 20 s
Bas [4]: 0%
Eos [4]: 1%
Fbg [4]: 225.2 mg/dL
Hb [4]: 15.2 g/dL
Ht [4]: 44%
Lym [4]: 80.8%
MCH [4]: 19.6 pg
MCHC [4]: 34.5%
MCV [4]: 57 fL
Mono [4]: 1.6%
Neu [4]: 15.6%
PT [4]: 12 s
Plat [4]: 108.6 x10_4/uL
RBC [4]: 772.6 x10_4/ul
Ret [4]: 3%
WBC [4]: 116.6 x10_2/uL
KIDNEY_L [2]: 1.1 g
KIDNEY_R [2]: 1.1 g
KIDNEY_TOTAL [2]: 2.2 g
KIDNEY_L [3]: 1.3 g
KIDNEY_R [3]: 1.3 g
KIDNEY_TOTAL [3]: 2.6 g
KIDNEY_L [4]: 1.4 g
KIDNEY_R [4]: 1.4 g
KIDNEY_TOTAL [4]: 2.8 g
LIVER [2]: 12.3 g
LIVER [3]: 15 g
LIVER [4]: 17.1 g
A/G [2]: 1.5
ALP [2]: 970.4 IU/L
ALT [2]: 36 IU/L
AST [2]: 66 IU/L
BUN [2]: 14.4 mg/dL
CRE [2]: 0.4 mg/dL
Ca [2]: 10.8 mg/dL
Cl [2]: 102.2 meq/L
DBIL [2]: 0.06 mg/dL
GLC [2]: 202.6 mg/dL
IP [2]: 6.7 mg/dL
K [2]: 3.8 meq/L
LDH [2]: 205.8 IU/L
Na [2]: 140.8 meq/L
PL [2]: 143.4 mg/dL
RALB [2]: 3.3 g/dL
TBIL [2]: 0.1 mg/dL
TC [2]: 73.8 mg/dL
TG [2]: 75.6 mg/dL
TP [2]: 5.5 g/dL
gamma-GTP [2]: 0.8 IU/L
A/G [3]: 1.4
ALP [3]: 736 IU/L
ALT [3]: 33.8 IU/L
AST [3]: 59.6 IU/L
BUN [3]: 15.8 mg/dL
CRE [3]: 0.4 mg/dL
Ca [3]: 10.7 mg/dL
Cl [3]: 100.8 meq/L
DBIL [3]: 0.076 mg/dL
GLC [3]: 232.4 mg/dL
IP [3]: 6.6 mg/dL
K [3]: 3.5 meq/L
LDH [3]: 211.4 IU/L
Na [3]: 139.8 meq/L
PL [3]: 148.8 mg/dL
RALB [3]: 3.3 g/dL
TBIL [3]: 0.1 mg/dL
TC [3]: 74 mg/dL
TG [3]: 110.4 mg/dL
TP [3]: 5.7 g/dL
gamma-GTP [3]: 1 IU/L
A/G [4]: 1.4
ALP [4]: 568 IU/L
ALT [4]: 33.6 IU/L
AST [4]: 60.2 IU/L
BUN [4]: 15.6 mg/dL
CRE [4]: 0.5 mg/dL
Ca [4]: 10.7 mg/dL
Cl [4]: 102.6 meq/L
DBIL [4]: 0.084 mg/dL
GLC [4]: 221 mg/dL
IP [4]: 6 mg/dL
K [4]: 3.6 meq/L
LDH [4]: 205.2 IU/L
Na [4]: 140.6 meq/L
PL [4]: 142.4 mg/dL
RALB [4]: 3.6 g/dL
TBIL [4]: 0.1 mg/dL
TC [4]: 70.8 mg/dL
TG [4]: 104.6 mg/dL
TP [4]: 6.2 g/dL
gamma-GTP [4]: 1 IU/L
TERMINAL_BW [5]: 229 g
APTT [5]: 18.4 s
Bas [5]: 0%
Eos [5]: 0.8%
Fbg [5]: 258.6 mg/dL
Hb [5]: 13.4 g/dL
Ht [5]: 39.4%
Lym [5]: 80%
MCH [5]: 20.9 pg
MCHC [5]: 33.9%
MCV [5]: 61.7 fL
Mono [5]: 3.4%
Neu [5]: 15.2%
PT [5]: 11.7 s
Plat [5]: 142.1 x10_4/uL
RBC [5]: 639.6 x10_4/ul
Ret [5]: 4.7%
WBC [5]: 128.3 x10_2/uL
KIDNEY_L [5]: 1 g
KIDNEY_R [5]: 1 g
KIDNEY_TOTAL [5]: 2 g
LIVER [5]: 11.1 g
A/G [5]: 1.5
ALP [5]: 874.6 IU/L
ALT [5]: 39.6 IU/L
AST [5]: 71 IU/L
BUN [5]: 13.6 mg/dL
CRE [5]: 0.4 mg/dL
Ca [5]: 10.5 mg/dL
Cl [5]: 103.2 meq/L
DBIL [5]: 0.058 mg/dL
GLC [5]: 206.2 mg/dL
IP [5]: 7.4 mg/dL
K [5]: 3.5 meq/L
LDH [5]: 221.2 IU/L
Na [5]: 141.2 meq/L
PL [5]: 125.4 mg/dL
RALB [5]: 3 g/dL
TBIL [5]: 0.1 mg/dL
TC [5]: 73.2 mg/dL
TG [5]: 59 mg/dL
TP [5]: 5 g/dL
gamma-GTP [5]: 1 IU/L
TERMINAL_BW [6]: 238.1 g
TERMINAL_BW [7]: 285 g
TERMINAL_BW [8]: 374.2 g
APTT [6]: 21.6 s
Bas [6]: 0%
Eos [6]: 0.8%
Fbg [6]: 334.8 mg/dL
Hb [6]: 14 g/dL
Ht [6]: 40.7%
Lym [6]: 74%
MCH [6]: 20.6 pg
MCHC [6]: 34.4%
MCV [6]: 60.2 fL
Mono [6]: 5.6%
Neu [6]: 18.2%
PT [6]: 13.1 s
Plat [6]: 146.5 x10_4/uL
RBC [6]: 676 x10_4/ul
Ret [6]: 3.1%
WBC [6]: 193.8 x10_2/uL
APTT [7]: 19.2 s
Bas [7]: 0%
Eos [7]: 0.8%
Fbg [7]: 250.6 mg/dL
Hb [7]: 13.7 g/dL
Ht [7]: 40%
Lym [7]: 70.2%
MCH [7]: 19.6 pg
MCHC [7]: 34.2%
MCV [7]: 57.3 fL
Mono [7]: 3.8%
Neu [7]: 24.8%
PT [7]: 12.4 s
Plat [7]: 192.6 x10_4/uL
RBC [7]: 698 x10_4/ul
Ret [7]: 5.4%
WBC [7]: 181.3 x10_2/uL
APTT [8]: 20.5 s
Bas [8]: 0%
Eos [8]: 1.2%
Fbg [8]: 218.6 mg/dL
Hb [8]: 15.2 g/dL
Ht [8]: 44.1%
Lym [8]: 78%
MCH [8]: 18.7 pg
MCHC [8]: 34.5%
MCV [8]: 54.3 fL
Mono [8]: 2.8%
Neu [8]: 17.2%
PT [8]: 12.1 s
Plat [8]: 107.4 x10_4/uL
RBC [8]: 813.2 x10_4/ul
Ret [8]: 2.8%
WBC [8]: 109.1 x10_2/uL
KIDNEY_L [6]: 1 g
KIDNEY_R [6]: 1.1 g
KIDNEY_TOTAL [6]: 2.1 g
KIDNEY_L [7]: 1.2 g
KIDNEY_R [7]: 1.2 g
KIDNEY_TOTAL [7]: 2.4 g
KIDNEY_L [8]: 1.3 g
KIDNEY_R [8]: 1.3 g
KIDNEY_TOTAL [8]: 2.6 g
LIVER [6]: 12.6 g
LIVER [7]: 14.4 g
LIVER [8]: 16.7 g
A/G [6]: 1.2
ALP [6]: 938.4 IU/L
ALT [6]: 195.4 IU/L
AST [6]: 610 IU/L
BUN [6]: 11.4 mg/dL
CRE [6]: 0.4 mg/dL
Ca [6]: 10.6 mg/dL
Cl [6]: 102.4 meq/L
DBIL [6]: 0.088 mg/dL
GLC [6]: 182.4 mg/dL
IP [6]: 7 mg/dL
K [6]: 3.7 meq/L
LDH [6]: 310.6 IU/L
Na [6]: 140.6 meq/L
PL [6]: 130.8 mg/dL
RALB [6]: 3 g/dL
TBIL [6]: 0.2 mg/dL
TC [6]: 72.6 mg/dL
TG [6]: 62.8 mg/dL
TP [6]: 5.6 g/dL
gamma-GTP [6]: 2.6 IU/L
A/G [7]: 1.3
ALP [7]: 758.4 IU/L
ALT [7]: 42.8 IU/L
AST [7]: 85.6 IU/L
BUN [7]: 14.2 mg/dL
CRE [7]: 0.4 mg/dL
Ca [7]: 10.7 mg/dL
Cl [7]: 101.8 meq/L
DBIL [7]: 0.07 mg/dL
GLC [7]: 202.6 mg/dL
IP [7]: 6.7 mg/dL
K [7]: 3.5 meq/L
LDH [7]: 234.8 IU/L
Na [7]: 141 meq/L
PL [7]: 140.8 mg/dL
RALB [7]: 3.4 g/dL
TBIL [7]: 0.1 mg/dL
TC [7]: 70.2 mg/dL
TG [7]: 69.6 mg/dL
TP [7]: 5.9 g/dL
gamma-GTP [7]: 1.4 IU/L
A/G [8]: 1.2
ALP [8]: 615.8 IU/L
ALT [8]: 39.2 IU/L
AST [8]: 64 IU/L
BUN [8]: 16.8 mg/dL
CRE [8]: 0.5 mg/dL
Ca [8]: 10.5 mg/dL
Cl [8]: 102.6 meq/L
DBIL [8]: 0.068 mg/dL
GLC [8]: 220.6 mg/dL
IP [8]: 5.6 mg/dL
K [8]: 3.5 meq/L
LDH [8]: 188.2 IU/L
Na [8]: 139.6 meq/L
PL [8]: 135.6 mg/dL
RALB [8]: 3.3 g/dL
TBIL [8]: 0.1 mg/dL
TC [8]: 65.6 mg/dL
TG [8]: 98.6 mg/dL
TP [8]: 6 g/dL
gamma-GTP [8]: 1 IU/L
